{"source": "patent US9156845B2", "about": "“4-(substituted amino)-7H-pyrrolo[2,3-d] pyrimidines as LRRK2 inhibitors” (Pfizer Inc., priority 2012, dated 2015)", "assay_in_all_cases": "ActivX kinase probe assay (human PBMC)", "assay_type_in_all_cases": "binding", "key": {"[1]": {"target": "LKB1 (Homo sapiens (Human), UniProt Q15831)", "conditions": "LKB1, read-out: percent inhibition"}, "[2]": {"test_system": "MST4, YSK1"}, "[3]": {"target": "PKR (Homo sapiens (Human), UniProt P19525)", "sequence (P19525 whole entry)": "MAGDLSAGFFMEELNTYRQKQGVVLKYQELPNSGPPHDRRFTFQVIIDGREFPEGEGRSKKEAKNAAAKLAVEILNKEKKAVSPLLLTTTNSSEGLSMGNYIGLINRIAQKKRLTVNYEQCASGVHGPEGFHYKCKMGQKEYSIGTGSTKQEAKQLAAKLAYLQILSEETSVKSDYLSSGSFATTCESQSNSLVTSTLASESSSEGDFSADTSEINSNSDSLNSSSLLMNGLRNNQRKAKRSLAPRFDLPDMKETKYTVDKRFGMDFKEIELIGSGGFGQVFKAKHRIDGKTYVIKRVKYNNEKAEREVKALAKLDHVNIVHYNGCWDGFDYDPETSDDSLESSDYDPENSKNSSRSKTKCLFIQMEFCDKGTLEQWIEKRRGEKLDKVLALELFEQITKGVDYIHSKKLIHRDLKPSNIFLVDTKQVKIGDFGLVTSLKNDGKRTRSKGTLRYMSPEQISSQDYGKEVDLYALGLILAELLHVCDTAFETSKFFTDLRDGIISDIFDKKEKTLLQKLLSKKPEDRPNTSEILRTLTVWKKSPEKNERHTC", "conditions": "PKR, read-out: percent inhibition"}, "[4]": {"target": "smMLCK (Homo sapiens (Human), UniProt Q15746)", "conditions": "smMLCK, read-out: percent inhibition"}, "[5]": {"target": "ZAK (Homo sapiens (Human), UniProt Q9NYL2)", "conditions": "ZAK, read-out: percent inhibition"}, "[6]": {"target": "FER (Homo sapiens (Human), UniProt P16591)", "sequence (P16591 whole entry)": "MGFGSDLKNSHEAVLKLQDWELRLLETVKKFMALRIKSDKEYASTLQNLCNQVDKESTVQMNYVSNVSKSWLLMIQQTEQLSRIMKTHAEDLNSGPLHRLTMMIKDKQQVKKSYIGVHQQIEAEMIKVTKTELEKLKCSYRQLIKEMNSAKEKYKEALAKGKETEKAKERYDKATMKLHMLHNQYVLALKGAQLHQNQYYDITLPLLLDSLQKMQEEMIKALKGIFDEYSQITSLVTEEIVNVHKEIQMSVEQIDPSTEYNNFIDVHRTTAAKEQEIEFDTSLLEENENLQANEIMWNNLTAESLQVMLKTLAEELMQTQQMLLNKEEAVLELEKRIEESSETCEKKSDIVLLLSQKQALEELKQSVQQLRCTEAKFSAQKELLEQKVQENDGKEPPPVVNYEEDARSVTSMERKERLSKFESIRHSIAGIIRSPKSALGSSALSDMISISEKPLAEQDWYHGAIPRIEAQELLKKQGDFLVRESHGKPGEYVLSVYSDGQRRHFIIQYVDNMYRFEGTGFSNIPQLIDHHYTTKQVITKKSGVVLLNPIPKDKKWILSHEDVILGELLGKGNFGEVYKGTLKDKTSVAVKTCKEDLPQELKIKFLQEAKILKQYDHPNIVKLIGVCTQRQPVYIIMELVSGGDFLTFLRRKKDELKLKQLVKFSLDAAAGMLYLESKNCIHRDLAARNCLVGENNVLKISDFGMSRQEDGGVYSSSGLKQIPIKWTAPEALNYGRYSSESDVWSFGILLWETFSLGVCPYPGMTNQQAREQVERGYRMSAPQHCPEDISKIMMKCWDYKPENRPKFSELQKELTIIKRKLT", "conditions": "FER, read-out: percent inhibition"}, "[7]": {"target": "MAST3 (Homo sapiens (Human), UniProt O60307)", "conditions": "MAST3, read-out: percent inhibition"}, "[8]": {"test_system": "ABL, ARG"}, "[9]": {"target": "TLK2 (Homo sapiens (Human), UniProt Q86UE8)", "conditions": "TLK2, read-out: percent inhibition"}, "[10]": {"target": "p70S6K (Homo sapiens (Human), UniProt P23443)", "sequence (P23443 whole entry)": "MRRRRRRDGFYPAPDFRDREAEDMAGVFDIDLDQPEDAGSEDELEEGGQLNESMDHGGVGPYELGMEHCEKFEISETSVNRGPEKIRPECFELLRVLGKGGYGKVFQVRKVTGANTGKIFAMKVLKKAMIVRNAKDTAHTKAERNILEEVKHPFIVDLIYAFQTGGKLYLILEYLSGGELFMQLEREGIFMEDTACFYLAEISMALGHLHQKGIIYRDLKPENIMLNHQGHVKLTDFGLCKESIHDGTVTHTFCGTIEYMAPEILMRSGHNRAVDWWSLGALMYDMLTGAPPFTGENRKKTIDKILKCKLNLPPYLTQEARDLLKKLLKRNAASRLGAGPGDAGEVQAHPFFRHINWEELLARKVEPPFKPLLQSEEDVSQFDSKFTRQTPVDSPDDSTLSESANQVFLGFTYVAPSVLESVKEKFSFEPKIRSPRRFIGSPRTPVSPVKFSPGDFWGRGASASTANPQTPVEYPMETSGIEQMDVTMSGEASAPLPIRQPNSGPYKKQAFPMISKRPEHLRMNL", "conditions": "p70S6K, read-out: percent inhibition"}, "[11]": {"target": "GPRK6 (Homo sapiens (Human), UniProt P43250)", "conditions": "GPRK6, read-out: percent inhibition"}, "[12]": {"target": "IKKe (Homo sapiens (Human), UniProt Q14164)", "sequence (Q14164 whole entry)": "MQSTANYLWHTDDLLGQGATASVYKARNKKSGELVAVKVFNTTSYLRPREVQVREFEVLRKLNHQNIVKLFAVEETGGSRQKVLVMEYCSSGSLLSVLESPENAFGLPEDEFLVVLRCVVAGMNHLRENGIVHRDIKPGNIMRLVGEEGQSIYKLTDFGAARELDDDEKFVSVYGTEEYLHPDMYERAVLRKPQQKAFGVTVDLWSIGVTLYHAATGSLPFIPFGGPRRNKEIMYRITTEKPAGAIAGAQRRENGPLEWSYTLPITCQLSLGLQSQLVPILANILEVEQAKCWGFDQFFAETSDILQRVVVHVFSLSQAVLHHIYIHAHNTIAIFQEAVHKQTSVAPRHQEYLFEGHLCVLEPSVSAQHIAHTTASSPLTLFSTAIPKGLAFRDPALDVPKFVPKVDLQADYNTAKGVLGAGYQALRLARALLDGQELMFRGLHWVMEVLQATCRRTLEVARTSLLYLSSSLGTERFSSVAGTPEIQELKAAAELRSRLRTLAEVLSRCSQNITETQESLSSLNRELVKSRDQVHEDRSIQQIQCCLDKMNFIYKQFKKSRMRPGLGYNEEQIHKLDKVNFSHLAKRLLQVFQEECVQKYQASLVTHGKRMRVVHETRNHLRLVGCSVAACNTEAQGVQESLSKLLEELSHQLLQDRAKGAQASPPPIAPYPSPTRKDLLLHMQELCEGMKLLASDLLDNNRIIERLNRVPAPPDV", "conditions": "IKKe, read-out: percent inhibition"}, "[13]": {"target": "KHS1 (Homo sapiens (Human), UniProt Q9Y4K4)", "conditions": "KHS1, read-out: percent inhibition"}, "[14]": {"test_system": "IKKe, TBK1"}, "[15]": {"target": "CHK2 (Homo sapiens (Human), UniProt O96017)", "sequence (O96017 whole entry)": "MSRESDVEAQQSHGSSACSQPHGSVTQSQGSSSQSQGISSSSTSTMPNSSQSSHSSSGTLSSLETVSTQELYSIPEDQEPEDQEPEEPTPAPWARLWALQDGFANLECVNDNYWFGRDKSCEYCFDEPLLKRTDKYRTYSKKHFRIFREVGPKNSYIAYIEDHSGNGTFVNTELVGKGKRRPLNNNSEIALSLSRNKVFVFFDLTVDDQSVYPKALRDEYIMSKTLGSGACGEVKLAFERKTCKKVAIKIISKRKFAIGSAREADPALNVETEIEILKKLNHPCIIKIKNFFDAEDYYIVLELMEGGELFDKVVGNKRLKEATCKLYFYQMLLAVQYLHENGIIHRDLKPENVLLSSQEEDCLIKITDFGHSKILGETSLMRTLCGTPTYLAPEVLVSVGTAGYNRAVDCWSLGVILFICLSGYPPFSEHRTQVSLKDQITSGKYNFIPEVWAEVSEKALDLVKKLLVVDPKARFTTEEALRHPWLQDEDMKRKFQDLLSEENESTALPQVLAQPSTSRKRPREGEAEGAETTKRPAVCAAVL", "conditions": "CHK2, read-out: percent inhibition"}, "[16]": {"target": "IRAK1 (Homo sapiens (Human), UniProt P51617)", "conditions": "IRAK1, read-out: percent inhibition"}, "[17]": {"test_system": "p70S6K, p70S6Kb"}, "[18]": {"test_system": "KSR1, KSR2"}, "[19]": {"target": "p38a (Homo sapiens (Human), UniProt Q16539)", "conditions": "p38a, read-out: percent inhibition"}, "[20]": {"test_system": "NEK6, NEK7"}, "[21]": {"test_system": "PITSLRE"}, "[22]": {"target": "MST3 (Homo sapiens (Human), UniProt Q9Y6E0)", "conditions": "MST3, read-out: percent inhibition"}, "[23]": {"target": "CDK5 (Homo sapiens (Human), UniProt Q00535)", "conditions": "CDK5, read-out: percent inhibition"}, "[24]": {"target": "IKKb (Homo sapiens (Human), UniProt O14920)", "sequence (O14920 whole entry)": "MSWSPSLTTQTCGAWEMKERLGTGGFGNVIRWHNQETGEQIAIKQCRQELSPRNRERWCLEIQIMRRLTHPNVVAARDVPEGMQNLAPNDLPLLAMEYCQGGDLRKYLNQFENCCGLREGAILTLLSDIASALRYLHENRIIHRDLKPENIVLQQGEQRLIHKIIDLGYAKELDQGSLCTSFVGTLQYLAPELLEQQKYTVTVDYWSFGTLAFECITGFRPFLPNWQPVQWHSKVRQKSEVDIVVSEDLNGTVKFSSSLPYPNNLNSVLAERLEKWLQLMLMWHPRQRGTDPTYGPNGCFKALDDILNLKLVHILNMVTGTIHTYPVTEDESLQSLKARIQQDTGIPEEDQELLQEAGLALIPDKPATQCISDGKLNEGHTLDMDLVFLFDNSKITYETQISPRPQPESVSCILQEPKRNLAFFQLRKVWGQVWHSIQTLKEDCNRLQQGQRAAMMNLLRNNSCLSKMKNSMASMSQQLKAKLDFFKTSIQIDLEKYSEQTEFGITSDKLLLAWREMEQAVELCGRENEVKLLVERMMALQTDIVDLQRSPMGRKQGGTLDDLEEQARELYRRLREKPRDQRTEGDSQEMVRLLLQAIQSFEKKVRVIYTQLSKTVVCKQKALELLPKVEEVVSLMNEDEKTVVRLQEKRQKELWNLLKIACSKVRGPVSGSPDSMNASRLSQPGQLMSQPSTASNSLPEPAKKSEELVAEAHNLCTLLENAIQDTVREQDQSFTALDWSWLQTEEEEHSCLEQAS", "conditions": "IKKb, read-out: percent inhibition"}, "[25]": {"target": "HPK1 (Homo sapiens (Human), UniProt Q92918)", "conditions": "HPK1, read-out: percent inhibition"}, "[26]": {"target": "JAK2 domain2 (Homo sapiens (Human), UniProt O60674)", "conditions": "JAK2 domain2, read-out: percent inhibition"}, "[27]": {"target": "ACK (Homo sapiens (Human), UniProt Q07912)", "conditions": "ACK, read-out: percent inhibition"}, "[28]": {"target": "MSK1 domain1 (Homo sapiens (Human), UniProt O75582)", "conditions": "MSK1 domain1, read-out: percent inhibition"}, "[29]": {"target": "DGKA (Homo sapiens (Human), UniProt P23743)", "conditions": "DGKA, read-out: percent inhibition"}, "[30]": {"target": "EphA1 (Homo sapiens (Human), UniProt P21709)", "sequence (P21709 26-976)": "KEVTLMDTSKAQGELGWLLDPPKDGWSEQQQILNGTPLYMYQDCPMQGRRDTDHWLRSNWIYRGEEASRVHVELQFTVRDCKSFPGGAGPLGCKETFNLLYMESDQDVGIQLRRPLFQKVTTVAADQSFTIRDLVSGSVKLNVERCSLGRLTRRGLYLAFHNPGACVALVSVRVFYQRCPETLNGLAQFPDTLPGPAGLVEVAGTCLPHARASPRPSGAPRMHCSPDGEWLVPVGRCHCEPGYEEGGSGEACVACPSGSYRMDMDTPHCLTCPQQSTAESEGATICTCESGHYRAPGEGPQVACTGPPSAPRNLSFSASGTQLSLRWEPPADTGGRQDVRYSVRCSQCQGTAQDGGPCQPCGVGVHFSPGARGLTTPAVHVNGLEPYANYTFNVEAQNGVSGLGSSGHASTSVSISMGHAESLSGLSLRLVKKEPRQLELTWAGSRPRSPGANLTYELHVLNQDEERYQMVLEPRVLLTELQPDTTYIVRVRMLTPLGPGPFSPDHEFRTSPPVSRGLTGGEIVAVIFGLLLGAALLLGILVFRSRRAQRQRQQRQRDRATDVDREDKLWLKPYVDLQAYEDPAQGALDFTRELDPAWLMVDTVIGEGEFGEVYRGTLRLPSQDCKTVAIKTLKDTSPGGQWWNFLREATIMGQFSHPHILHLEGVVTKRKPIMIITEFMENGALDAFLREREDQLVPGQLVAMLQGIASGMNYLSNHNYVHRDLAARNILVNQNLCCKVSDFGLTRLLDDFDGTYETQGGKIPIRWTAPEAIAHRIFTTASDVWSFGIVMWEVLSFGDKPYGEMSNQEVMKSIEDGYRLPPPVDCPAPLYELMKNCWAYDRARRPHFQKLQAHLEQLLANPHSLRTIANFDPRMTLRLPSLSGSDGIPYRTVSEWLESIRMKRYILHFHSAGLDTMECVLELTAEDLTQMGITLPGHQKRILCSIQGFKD", "conditions": "EphA1, read-out: percent inhibition"}, "[31]": {"test_system": "TAO1, TAO3"}, "[32]": {"test_system": "ZC1/HGK, ZC2/TNIK, ZC3/MINK"}, "[33]": {"target": "MAP2K3 (Homo sapiens (Human), UniProt P46734)", "conditions": "MAP2K3, read-out: percent inhibition"}, "[34]": {"target": "PIP5K3 (Homo sapiens (Human), UniProt Q9Y2I7)", "conditions": "PIP5K3, read-out: percent inhibition"}, "[35]": {"target": "NEK1 (Homo sapiens (Human), UniProt Q96PY6)", "conditions": "NEK1, read-out: percent inhibition"}, "[36]": {"target": "MARK3 (Homo sapiens (Human), UniProt P27448)", "conditions": "MARK3, read-out: percent inhibition"}}}
{"smiles": "Cn1cc(-c2c[nH]c3ncnc(N4CCOCC4)c23)cc1C#N", "note": "[Example 217, 1-methyl-4-[4-(morpholin-4-yl)-7H-pyrrolo[2,3-d]pyrimidin-5-yl]-1H-pyrrole-2-carbonitrile]", "values": [{"measurement": "inhibition at 0.1 µM", "setting": "[1]; 0.1 μM", "value": -5.3, "unit": "%"}, {"measurement": "inhibition at 1 µM", "setting": "[1]; 1 μM", "value": 2.4, "unit": "%"}, {"measurement": "percent inhibition", "setting": "[2]; 0.1 μM", "value": 5.3, "unit": "%"}, {"measurement": "percent inhibition", "setting": "[2]; 1 μM", "value": 9.9, "unit": "%"}, {"measurement": "inhibition at 0.1 µM", "setting": "[3]; 0.1 μM", "value": -7.7, "unit": "%"}, {"measurement": "inhibition at 1 µM", "setting": "[3]; 1 μM", "value": 1.8, "unit": "%"}, {"measurement": "inhibition at 0.1 µM", "setting": "[4]; 0.1 μM", "value": 1.7, "unit": "%"}, {"measurement": "inhibition at 1 µM", "setting": "[4]; 1 μM", "value": 3.5, "unit": "%"}, {"measurement": "inhibition at 0.1 µM", "setting": "[5]; 0.1 μM", "value": -2.9, "unit": "%"}, {"measurement": "inhibition at 1 µM", "setting": "[5]; 1 μM", "value": -1.2, "unit": "%"}, {"measurement": "inhibition at 0.1 µM", "setting": "[6]; 0.1 μM", "value": 5.2, "unit": "%"}, {"measurement": "inhibition at 1 µM", "setting": "[6]; 1 μM", "value": 16.3, "unit": "%"}, {"measurement": "inhibition at 0.1 µM", "setting": "[7]; 0.1 μM", "value": -11.7, "unit": "%"}, {"measurement": "inhibition at 1 µM", "setting": "[7]; 1 μM", "value": 0.4, "unit": "%"}, {"measurement": "percent inhibition", "setting": "[8]; 0.1 μM", "value": 4.6, "unit": "%"}, {"measurement": "percent inhibition", "setting": "[8]; 1 μM", "value": "−1.6", "unit": "%"}, {"measurement": "inhibition at 0.1 µM", "setting": "[9]; 0.1 μM", "value": 11.1, "unit": "%"}, {"measurement": "inhibition at 1 µM", "setting": "[9]; 1 μM", "value": 16, "unit": "%"}, {"measurement": "inhibition at 0.1 µM", "setting": "[10]; 0.1 μM", "value": 3.5, "unit": "%"}, {"measurement": "inhibition at 1 µM", "setting": "[10]; 1 μM", "value": -9.6, "unit": "%"}, {"measurement": "inhibition at 0.1 µM", "setting": "[11]; 0.1 μM", "value": -0.8, "unit": "%"}, {"measurement": "inhibition at 1 µM", "setting": "[11]; 1 μM", "value": 3.6, "unit": "%"}, {"measurement": "inhibition at 0.1 µM", "setting": "[12]; 0.1 μM", "value": -3, "unit": "%"}, {"measurement": "inhibition at 1 µM", "setting": "[12]; 1 μM", "value": 20.4, "unit": "%"}, {"measurement": "inhibition at 0.1 µM", "setting": "[13]; 0.1 μM", "value": 10.7, "unit": "%"}, {"measurement": "inhibition at 1 µM", "setting": "[13]; 1 μM", "value": 7.6, "unit": "%"}, {"measurement": "percent inhibition", "setting": "[14]; 0.1 μM", "value": 2.3, "unit": "%"}, {"measurement": "percent inhibition", "setting": "[14]; 1 μM", "value": 13.3, "unit": "%"}, {"measurement": "inhibition at 0.1 µM", "setting": "[15]; 0.1 μM", "value": 8.6, "unit": "%"}, {"measurement": "inhibition at 1 µM", "setting": "[15]; 1 μM", "value": 6.4, "unit": "%"}, {"measurement": "inhibition at 0.1 µM", "setting": "[16]; 0.1 μM", "value": -1.7, "unit": "%"}, {"measurement": "inhibition at 1 µM", "setting": "[16]; 1 μM", "value": 7.5, "unit": "%"}, {"measurement": "percent inhibition", "setting": "[17]; 0.1 μM", "value": 5.5, "unit": "%"}, {"measurement": "percent inhibition", "setting": "[17]; 1 μM", "value": 5.4, "unit": "%"}, {"measurement": "percent inhibition", "setting": "[18]; 0.1 μM", "value": "−6.2", "unit": "%"}, {"measurement": "percent inhibition", "setting": "[18]; 1 μM", "value": "−6.8", "unit": "%"}, {"measurement": "inhibition at 0.1 µM", "setting": "[19]; 0.1 μM", "value": -1.1, "unit": "%"}, {"measurement": "inhibition at 1 µM", "setting": "[19]; 1 μM", "value": -4.6, "unit": "%"}, {"measurement": "percent inhibition", "setting": "[20]; 0.1 μM", "value": "−2.9", "unit": "%"}, {"measurement": "percent inhibition", "setting": "[20]; 1 μM", "value": 6.4, "unit": "%"}, {"measurement": "percent inhibition", "setting": "[21]; 0.1 μM", "value": "−6.7", "unit": "%"}, {"measurement": "percent inhibition", "setting": "[21]; 1 μM", "value": 6.6, "unit": "%"}, {"measurement": "inhibition at 0.1 µM", "setting": "[22]; 0.1 μM", "value": 6.7, "unit": "%"}, {"measurement": "inhibition at 1 µM", "setting": "[22]; 1 μM", "value": 10.9, "unit": "%"}, {"measurement": "inhibition at 0.1 µM", "setting": "[23]; 0.1 μM", "value": 0.5, "unit": "%"}, {"measurement": "inhibition at 1 µM", "setting": "[23]; 1 μM", "value": 7.9, "unit": "%"}, {"measurement": "inhibition at 0.1 µM", "setting": "[24]; 0.1 μM", "value": 7.1, "unit": "%"}, {"measurement": "inhibition at 1 µM", "setting": "[24]; 1 μM", "value": 6.5, "unit": "%"}, {"measurement": "inhibition at 0.1 µM", "setting": "[25]; 0.1 μM", "value": -13.7, "unit": "%"}, {"measurement": "inhibition at 1 µM", "setting": "[25]; 1 μM", "value": 1.7, "unit": "%"}, {"measurement": "inhibition at 0.1 µM", "setting": "[26]; 0.1 μM", "value": 4.8, "unit": "%"}, {"measurement": "inhibition at 1 µM", "setting": "[26]; 1 μM", "value": -6.4, "unit": "%"}, {"measurement": "inhibition at 0.1 µM", "setting": "[27]; 0.1 μM", "value": -9.8, "unit": "%"}, {"measurement": "inhibition at 1 µM", "setting": "[27]; 1 μM", "value": -19.5, "unit": "%"}, {"measurement": "inhibition at 0.1 µM", "setting": "[28]; 0.1 μM", "value": -12.1, "unit": "%"}, {"measurement": "inhibition at 1 µM", "setting": "[28]; 1 μM", "value": -2.2, "unit": "%"}, {"measurement": "inhibition at 0.1 µM", "setting": "[29]; 0.1 μM", "value": -2.8, "unit": "%"}, {"measurement": "inhibition at 1 µM", "setting": "[29]; 1 μM", "value": 4.7, "unit": "%"}, {"measurement": "inhibition at 0.1 µM", "setting": "[30]; 0.1 μM", "value": 11.1, "unit": "%"}, {"measurement": "inhibition at 1 µM", "setting": "[30]; 1 μM", "value": -16.1, "unit": "%"}, {"measurement": "percent inhibition", "setting": "[31]; 0.1 μM", "value": "−9.7", "unit": "%"}, {"measurement": "percent inhibition", "setting": "[31]; 1 μM", "value": "−16.5", "unit": "%"}, {"measurement": "percent inhibition", "setting": "[32]; 0.1 μM", "value": "−1.2", "unit": "%"}, {"measurement": "percent inhibition", "setting": "[32]; 1 μM", "value": 7.7, "unit": "%"}, {"measurement": "inhibition at 0.1 µM", "setting": "[33]; 0.1 μM", "value": 2.5, "unit": "%"}, {"measurement": "inhibition at 1 µM", "setting": "[33]; 1 μM", "value": 3.3, "unit": "%"}, {"measurement": "inhibition at 0.1 µM", "setting": "[34]; 0.1 μM", "value": 16, "unit": "%"}, {"measurement": "inhibition at 1 µM", "setting": "[34]; 1 μM", "value": 2.5, "unit": "%"}, {"measurement": "inhibition at 0.1 µM", "setting": "[35]; 0.1 μM", "value": 4.8, "unit": "%"}, {"measurement": "inhibition at 1 µM", "setting": "[35]; 1 μM", "value": -5.1, "unit": "%"}, {"measurement": "inhibition at 0.1 µM", "setting": "[36]; 0.1 μM", "value": 16.2, "unit": "%"}, {"measurement": "inhibition at 1 µM", "setting": "[36]; 1 μM", "value": 18.4, "unit": "%"}]}
